US11066681B2, “Production of itaconic acid” (LESAFFRE ET COMPAGNIE, priority 2016, dated 2021)
“Also recorded” adds a separate entry of the source.

Experiments:
[1] = test system: A. niger AB1.13 CAD 4.1 (CBS 141653) strain; assay: Itaconic acid toxicity: shakeflask growth in M12+Cu with added IA, biomass dry weight; format: cell-based, Aspergillus niger
Description: FIG. 4: Growth of AB1.13 CAD 4.1 (CBS 141653) strain in M12+Cu supplemented with several concentrations of itaconic acid. Medium devoid of C-source is used as negative control. An extracellular concentration of 10 g/l IA in the production medium results in an 75% decrease in biomass development.
Shakeflasks (500 mL) were prepared with 100 mL M12+Cu supplemented with the following IA concentrations: 0, 10, 20, 40, 75 g/l and pH was adjusted to 2.3 by addition of KOH/H2SO4. The flasks were inoculated with 1 mL of overnight grown pre-culture. After 7 days the mycelium was harvested and the biomass was determined by measuring the dry weight. The effect of IA on the growth of A. niger was tested using the AB1.13 CAD 4.1 (CBS 141653) strain. As shown in FIG. 4 the growth of A. niger is already hampered at concentrations of 10 g/l IA in the extracellular medium.

[2] = test system: trans-aconitate 2-methyltransferase (An16g06510); assay: Gene expression analysis (RNA-Seq) in A. niger IA producing strains; format: cell-based, Aspergillus niger; settings: IA producing A. niger strains in controlled fermentation
Description: Similarly, genome wide gene expression analysis of Aspergillus niger strains expressing a functional itaconic acid pathway grown in fermenters was carried out to identify genes co-regulated by the expression of the itaconic acid gene cluster. The following strains were investigated: AB1.13 WT, AB1.13 CAD 4.1 (CBS141653), AB1.13 #49B (CBS141657), CitB #99 (CBS141659), and CitB #113.
Controlled batch-cultivations were performed on 5 L scale benchtop New Brunswick Scientific fermenters (BioFlo 3000) at 33° C. Starting pH was 3.5 after inoculation and medium was allowed to naturally acidify till pH 2.3 and then kept at pH 2.3 by addition of 4M KOH. […]
BaseClear in Leiden, NL performed digital gene expression profiling experiments based on RNA-Seq with an Illumina HiSeq 2000 System. Approximately 8-32 M unfiltered paired-end (PE) reads (99 bp/read on ˜320 bp cDNA inserts) were obtained. […] The reads were then further filtered, such that all quality phred scores after filtering are at least 22, with a read-length of at least 40 bases. […] After filtering the #PE-reads/samples were between 7.6M and 19.8M for all the samples respectively.
Reads were aligned to the 20 contigs in a FastA file of the Aspergillus niger reference genome (from www.ebi.ac.uk). […] The reads were aligned to the reference genome using software based on a Burrows-Wheeler Transform (BWT) algorithm. […]

[3] = test system: Itaconyl CoA transferase ATEG_06299; settings: 40 g/l IA addition to culture medium; cited from earlier work
[4] = test system: Itaconyl CoA hydratase ATEG_03709; settings: 40 g/l IA addition to culture medium; cited from earlier work
[5] = test system: Citramalyl-CoA lyase ATEG_03186; settings: 40 g/l IA addition to culture medium; cited from earlier work
[6] = test system: Trans-aconitate 3-methyltransferase (tmt-1) ATEG_06208; settings: 40 g/l IA addition to culture medium; cited from earlier work
[7] = test system: Trans-aconitate 2-methyltransferase ATEG_04223; settings: 40 g/l IA addition to culture medium; cited from earlier work

Compound: C=C(CC(=O)O)C(=O)O [IA, itaconic acid]
- growth of A. niger ([1]; 10 g/l IA in the extracellular medium, M12+Cu, 7 days): hampered
- growth at higher IA concentrations ([1]; 20 g/l IA and higher (20, 40 and 75 g/l), M12+Cu, 7 days, 33° C.): detrimental effects of IA on growth become more evident; also recorded: further deteriorated growth
- decrease in biomass development ([1]; extracellular 10 g/l IA in production medium M12+Cu, pH 2.3, 7 days, 33° C.): 75%
- gene expression, effect of itaconic acid [2]: induced
- Induced [3]: induced
- induced expression level (RKPM) [3]: 130 RKPM
- x-fold [3]: 8.2 x-fold
- Induced [4]: induced
- induced expression level (RKPM) [4]: 320 RKPM
- x-fold [4]: 2.3 x-fold
- Induced [5]: induced
- induced expression level (RKPM) [5]: 150 RKPM
- x-fold [5]: 5.4 x-fold
- Induced [6]: not induced
- induced expression level (RKPM) [6]: <(4) RKPM
- Induced [7]: not induced
- induced expression level (RKPM) [7]: <(25) RKPM
